Test: recombinant UMI read abundance after kanamycin selection (control-corrected) (log10(CPM+1)); higher = more efficient recombination; extreme values may be limits of the assay; sequences stand for … in AGTGCAGAGAAAATCGGCCAGTTTTCTCTGCCTGCAGTCCGCATGCCGTGGGACCCCTTGGGTTCTAACCTGTTGCCTAGATTTATGCAGCGGACTGCCTTTCTCCCAAAGTGATAAACCGG…AGGTTGGTTTCACT; site = the 11-nt donor
In short: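 Counts of recombinant UMIs were reported as log10(CPM+1). Before that, they were converted to CPM, averaged over replicates and scaled using control-derived factors. They came from PCR across the donor–target junction after Escherichia coli carrying the pair library and target plasmid was plated on IPTG (0.07 mM) plus kanamycin, or unselected, in two replicates each.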
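Further: IS621 bridge recombinase in Escherichia coli cells against a fixed T5 target plasmid.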

Row | Sequence | recombinant UMI read abundance (log10)
1 | CGTAAAGCATGGACCGGTTTTCCCGGTAATCCGTATTTGAT (site CCTAAAGCTAT) | 0
2 | CGTAAAGCATGGACCGGTTTTCCCGGTAATCCGTATTTGAT (site CGTAAAGCTAT) | 2.44
3 | CGTAAAGCATGGACCGGTTTTCCCGGTAATCCGTATTTGAT (site CTTAAAGCTAT) | 0
4 | CGTAACACATGGACCGGTTTTCCCGGTAATCCGTATTTGCC (site CGTAACACTGG) | 2.01
5 | CGTAAGACATGGACCGGTTTTCCCGGTAATCCGTATTTGAG (site CGTAAGACTCT) | 1.73
6 | CGTAAGACATGGACCGGTTTTCCCGGTAATCCGTATTTGAG (site CGTCAGACTCT) | 0.0684
7 | CGTAAGACATGGACCGGTTTTCCCGGTAATCCGTATTTGAG (site CGTGAGACTCT) | 0.0574
8 | CGTAAGACATGGACCGGTTTTCCCGGTAATCCGTATTTGAG (site CGTTAGACTCT) | 0.396
9 | CGTACATCATGGACCGGTTTTCCCGGTAATCCGTATTTGCG (site CGTACATCTCG) | 1.29
10 | CGTACGTCATGGACCGGTTTTCCCGGTAATCCGTATTTGTT (site AGTACGTCTAA) | 0.0741
11 | CGTACGTCATGGACCGGTTTTCCCGGTAATCCGTATTTGTT (site CGTACGTCTAA) | 0.728
12 | CGTACGTCATGGACCGGTTTTCCCGGTAATCCGTATTTGTT (site GGTACGTCTAA) | 0.0115
13 | CGTACGTCATGGACCGGTTTTCCCGGTAATCCGTATTTGTT (site TGTACGTCTAA) | 0.00974
14 | CGTACTCCATGGACCGGTTTTCCCGGTAATCCGTATTTGCA (site CGTACTCCTTG) | 0.892
15 | CGTAGAACATGGACCGGTTTTCCCGGTAATCCGTATTTGTT (site CGTAGAACTAA) | 0.685
16 | CGTAGAACATGGACCGGTTTTCCCGGTAATCCGTATTTGTT (site CGTCGAACTAA) | 0.018
17 | CGTAGAACATGGACCGGTTTTCCCGGTAATCCGTATTTGTT (site CGTGGAACTAA) | 0.00623
18 | CGTAGAACATGGACCGGTTTTCCCGGTAATCCGTATTTGTT (site CGTTGAACTAA) | 0.0104
19 | CGTAGTGCATGGACCGGTTTTCCCGGTAATCCGTATTTGTT (site CGTAGTGCTAA) | 0.84
20 | CGTCCAGCATGGACCGGTTTTCCCGGTAATCCGTATTTGCT (site CGTCCAGCTAG) | 0.438
21 | CGTCGAACATGGACCGGTTTTCCCGGTAATCCGTATTTGAA (site CGTCGAACTTT) | 0.822
22 | CGTCGAACATGGACCGGTTTTCCCGGTAATCCGTATTTGTT (site CGTAGAACTAA) | 0
23 | CGTCGAACATGGACCGGTTTTCCCGGTAATCCGTATTTGTT (site CGTCGAACTAA) | 0
24 | CGTCGAACATGGACCGGTTTTCCCGGTAATCCGTATTTGTT (site CGTGGAACTAA) | 0
25 | CGTCGAACATGGACCGGTTTTCCCGGTAATCCGTATTTGTT (site CGTTGAACTAA) | 0.00437

Row | Sequence | recombinant UMI read abundance (log10)
26 | CGTCTATCATGGACCGGTTTTCCCGGTAATCCGTATTTGAT (site CGTCTATCTAT) | 0
27 | CGTCTCTCATGGACCGGTTTTCCCGGTAATCCGTATTTGGG (site CGTCTCTCTCC) | 0.0222
28 | CGTCTCTCATGGACCGGTTTTCCCGGTAATCCGTATTTGTA (site CATCTCTCTTA) | 1.13
29 | CGTCTCTCATGGACCGGTTTTCCCGGTAATCCGTATTTGTA (site CCTCTCTCTTA) | 1.04
30 | CGTCTCTCATGGACCGGTTTTCCCGGTAATCCGTATTTGTA (site CGTCTCTCTTA) | 2.64
31 | CGTCTCTCATGGACCGGTTTTCCCGGTAATCCGTATTTGTA (site CTTCTCTCTTA) | 1.33
32 | CGTCTGTCATGGACCGGTTTTCCCGGTAATCCGTATTTGAC (site CGTCTGTCTGT) | 0
33 | CGTGCAACATGGACCGGTTTTCCCGGTAATCCGTATTTGTT (site CGTGAAACTAA) | 0
34 | CGTGCAACATGGACCGGTTTTCCCGGTAATCCGTATTTGTT (site CGTGCAACTAA) | 0.0114
35 | CGTGCAACATGGACCGGTTTTCCCGGTAATCCGTATTTGTT (site CGTGGAACTAA) | 0.018
36 | CGTGCAACATGGACCGGTTTTCCCGGTAATCCGTATTTGTT (site CGTGTAACTAA) | 0.00375
37 | CGTGGAACATGGACCGGTTTTCCCGGTAATCCGTATTTGAT (site CGTGGAACTAA) | 0.00774
38 | CGTGGAACATGGACCGGTTTTCCCGGTAATCCGTATTTGAT (site CGTGGAACTAC) | 0
39 | CGTGGAACATGGACCGGTTTTCCCGGTAATCCGTATTTGAT (site CGTGGAACTAG) | 0
40 | CGTGGAACATGGACCGGTTTTCCCGGTAATCCGTATTTGAT (site CGTGGAACTAT) | 2.14
41 | CGTGGAACATGGACCGGTTTTCCCGGTAATCCGTATTTGTG (site CGTGGAACTAA) | 0.0173
42 | CGTGGAACATGGACCGGTTTTCCCGGTAATCCGTATTTGTG (site CGTGGAACTCA) | 1.16
43 | CGTGGAACATGGACCGGTTTTCCCGGTAATCCGTATTTGTG (site CGTGGAACTGA) | 0
44 | CGTGGAACATGGACCGGTTTTCCCGGTAATCCGTATTTGTG (site CGTGGAACTTA) | 1.61
45 | CGTGGAACATGGACCGGTTTTCCCGGTAATCCGTATTTGTT (site AGTGGAACTAA) | 0.101
46 | CGTGGAACATGGACCGGTTTTCCCGGTAATCCGTATTTGTT (site CATGGAACTAA) | 0.0194
47 | CGTGGAACATGGACCGGTTTTCCCGGTAATCCGTATTTGTT (site CCTGGAACTAA) | 0.0032
48 | CGTGGAACATGGACCGGTTTTCCCGGTAATCCGTATTTGTT (site CGAGGAACTAA) | 1.63
49 | CGTGGAACATGGACCGGTTTTCCCGGTAATCCGTATTTGTT (site CGCGGAACTAA) | 0.501
50 | CGTGGAACATGGACCGGTTTTCCCGGTAATCCGTATTTGTT (site CGGGGAACTAA) | 0.00685

Row | Sequence | recombinant UMI read abundance (log10)
51 | CGTGGAACATGGACCGGTTTTCCCGGTAATCCGTATTTGTT (site CGTAGAACTAA) | 1.15
52 | CGTGGAACATGGACCGGTTTTCCCGGTAATCCGTATTTGTT (site CGTCGAACTAA) | 0.0185
53 | CGTGGAACATGGACCGGTTTTCCCGGTAATCCGTATTTGTT (site CGTGAAACTAA) | 0
54 | CGTGGAACATGGACCGGTTTTCCCGGTAATCCGTATTTGTT (site CGTGCAACTAA) | 0.00967
55 | CGTGGAACATGGACCGGTTTTCCCGGTAATCCGTATTTGTT (site CGTGGAACTAA) | 1.72
56 | CGTGGAACATGGACCGGTTTTCCCGGTAATCCGTATTTGTT (site CGTGGAACTAC) | 0.303
57 | CGTGGAACATGGACCGGTTTTCCCGGTAATCCGTATTTGTT (site CGTGGAACTAG) | 0.951
58 | CGTGGAACATGGACCGGTTTTCCCGGTAATCCGTATTTGTT (site CGTGGAACTAT) | 0.403
59 | CGTGGAACATGGACCGGTTTTCCCGGTAATCCGTATTTGTT (site CGTGGAACTCA) | 0.251
60 | CGTGGAACATGGACCGGTTTTCCCGGTAATCCGTATTTGTT (site CGTGGAACTGA) | 0.938
61 | CGTGGAACATGGACCGGTTTTCCCGGTAATCCGTATTTGTT (site CGTGGAACTTA) | 0.841
62 | CGTGGAACATGGACCGGTTTTCCCGGTAATCCGTATTTGTT (site CGTGGACCTAA) | 0.071
63 | CGTGGAACATGGACCGGTTTTCCCGGTAATCCGTATTTGTT (site CGTGGAGCTAA) | 0.00766
64 | CGTGGAACATGGACCGGTTTTCCCGGTAATCCGTATTTGTT (site CGTGGATCTAA) | 0.524
65 | CGTGGAACATGGACCGGTTTTCCCGGTAATCCGTATTTGTT (site CGTGGCACTAA) | 0.0304
66 | CGTGGAACATGGACCGGTTTTCCCGGTAATCCGTATTTGTT (site CGTGGGACTAA) | 0.0232
67 | CGTGGAACATGGACCGGTTTTCCCGGTAATCCGTATTTGTT (site CGTGGTACTAA) | 0
68 | CGTGGAACATGGACCGGTTTTCCCGGTAATCCGTATTTGTT (site CGTGTAACTAA) | 0
69 | CGTGGAACATGGACCGGTTTTCCCGGTAATCCGTATTTGTT (site CGTTGAACTAA) | 0
70 | CGTGGAACATGGACCGGTTTTCCCGGTAATCCGTATTTGTT (site CTTGGAACTAA) | 0.0161
71 | CGTGGAACATGGACCGGTTTTCCCGGTAATCCGTATTTGTT (site GGTGGAACTAA) | 0.0165
72 | CGTGGAACATGGACCGGTTTTCCCGGTAATCCGTATTTGTT (site TGTGGAACTAA) | 0.0144
73 | CGTGGACCATGGACCGGTTTTCCCGGTAATCCGTATTTGGG (site CGAGGACCTCC) | 0.0168
74 | CGTGGACCATGGACCGGTTTTCCCGGTAATCCGTATTTGGG (site CGCGGACCTCC) | 0.00423
75 | CGTGGACCATGGACCGGTTTTCCCGGTAATCCGTATTTGGG (site CGGGGACCTCC) | 0.028

— the supplement of paper PMC11208160
